Drawing on BindingDB's records for patent US11547697 (Millennium Pharmaceuticals, 2023), this text covers IC50 for 47 compounds.

What all share (experiment): Inhibition Assay of PI3K
In experiment [1] the target is Phosphatidylinositol 4,5-bisphosphate 3-kinase catalytic subunit gamma isoform (Homo sapiens, UniProt P48736).
Protocol: (§1) An exemplary system is PI 3-Kinase (human) HTRF Assay from Upstate. […] Briefly, the assay is a time resolved FRET assay that indirectly measures PIP3 product formed by the activity of a PI3-K. The kinase reaction is performed in a microtitre plate (e.g., a 384 well microtitre plate). The total reaction volume is approximately 20 ul per well. In the first step, each well receives 2 ul of test compound in 20% dimethylsulphoxide resulting in a 2% DMSO final concentration. Next, approximately 14.5 ul of a kinase/PIP2 mixture (diluted in 1× reaction buffer) is added per well for a final concentration of 0.25-0.3 ug/ml kinase and 10 μM PIP2. The plate is sealed and incubated for 15 minutes at room temperature. To start the reaction, 3.5 ul of ATP (diluted in 1× reaction buffer) is added per well for a final concentration of 10 μM ATP. The plate is sealed and incubated for 1 hour at room temperature. The reaction is stopped by adding 5 ul of Stop Solution per well and then 5 ul of Detection Mix is added per well. The plate is sealed, incubated for 1 hour at room temperature, and then read on an appropriate plate reader.
Experiment [2] addresses T1, Phosphatidylinositol 4,5-bisphosphate 3-kinase catalytic subunit delta isoform (Homo sapiens, UniProt O00329).
T1 sequence (O00329 whole entry): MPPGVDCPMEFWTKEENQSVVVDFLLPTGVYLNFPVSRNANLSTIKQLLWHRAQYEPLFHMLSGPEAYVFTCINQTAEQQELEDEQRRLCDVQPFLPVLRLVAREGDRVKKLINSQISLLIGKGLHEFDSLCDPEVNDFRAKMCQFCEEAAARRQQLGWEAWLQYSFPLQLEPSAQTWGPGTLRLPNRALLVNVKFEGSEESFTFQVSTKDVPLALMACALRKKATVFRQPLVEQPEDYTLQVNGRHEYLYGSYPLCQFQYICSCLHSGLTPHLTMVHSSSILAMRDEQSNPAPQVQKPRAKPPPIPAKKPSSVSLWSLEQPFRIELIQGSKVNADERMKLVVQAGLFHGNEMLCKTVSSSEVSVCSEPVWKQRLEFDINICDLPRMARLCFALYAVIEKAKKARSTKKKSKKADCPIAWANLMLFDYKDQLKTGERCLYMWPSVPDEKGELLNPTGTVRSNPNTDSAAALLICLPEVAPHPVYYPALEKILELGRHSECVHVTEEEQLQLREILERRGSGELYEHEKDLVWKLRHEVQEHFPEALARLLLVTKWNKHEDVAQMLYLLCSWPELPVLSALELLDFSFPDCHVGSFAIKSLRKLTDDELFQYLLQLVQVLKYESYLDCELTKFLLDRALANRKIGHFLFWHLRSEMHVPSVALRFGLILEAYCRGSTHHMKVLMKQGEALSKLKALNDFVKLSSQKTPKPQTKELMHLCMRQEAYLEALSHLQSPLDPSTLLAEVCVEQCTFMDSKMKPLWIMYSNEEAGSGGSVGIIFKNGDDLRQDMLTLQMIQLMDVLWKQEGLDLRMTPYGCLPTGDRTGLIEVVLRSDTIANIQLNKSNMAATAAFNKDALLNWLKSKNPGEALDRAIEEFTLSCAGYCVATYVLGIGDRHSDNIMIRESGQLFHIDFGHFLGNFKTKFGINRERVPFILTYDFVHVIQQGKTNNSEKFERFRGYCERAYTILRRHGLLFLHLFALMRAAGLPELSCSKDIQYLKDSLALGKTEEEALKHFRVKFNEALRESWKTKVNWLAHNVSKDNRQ
Protocol: as §1

Experiment [3] has as its target Phosphatidylinositol 4,5-bisphosphate 3-kinase catalytic subunit beta isoform (Homo sapiens, UniProt P42338).
Protocol: as §1

A value given as a limit tells only on which side of the number the result lay.

Sequence of Phosphatidylinositol 4,5-bisphosphate 3-kinase catalytic subunit beta isoform (P42338 whole entry, canonical isoform): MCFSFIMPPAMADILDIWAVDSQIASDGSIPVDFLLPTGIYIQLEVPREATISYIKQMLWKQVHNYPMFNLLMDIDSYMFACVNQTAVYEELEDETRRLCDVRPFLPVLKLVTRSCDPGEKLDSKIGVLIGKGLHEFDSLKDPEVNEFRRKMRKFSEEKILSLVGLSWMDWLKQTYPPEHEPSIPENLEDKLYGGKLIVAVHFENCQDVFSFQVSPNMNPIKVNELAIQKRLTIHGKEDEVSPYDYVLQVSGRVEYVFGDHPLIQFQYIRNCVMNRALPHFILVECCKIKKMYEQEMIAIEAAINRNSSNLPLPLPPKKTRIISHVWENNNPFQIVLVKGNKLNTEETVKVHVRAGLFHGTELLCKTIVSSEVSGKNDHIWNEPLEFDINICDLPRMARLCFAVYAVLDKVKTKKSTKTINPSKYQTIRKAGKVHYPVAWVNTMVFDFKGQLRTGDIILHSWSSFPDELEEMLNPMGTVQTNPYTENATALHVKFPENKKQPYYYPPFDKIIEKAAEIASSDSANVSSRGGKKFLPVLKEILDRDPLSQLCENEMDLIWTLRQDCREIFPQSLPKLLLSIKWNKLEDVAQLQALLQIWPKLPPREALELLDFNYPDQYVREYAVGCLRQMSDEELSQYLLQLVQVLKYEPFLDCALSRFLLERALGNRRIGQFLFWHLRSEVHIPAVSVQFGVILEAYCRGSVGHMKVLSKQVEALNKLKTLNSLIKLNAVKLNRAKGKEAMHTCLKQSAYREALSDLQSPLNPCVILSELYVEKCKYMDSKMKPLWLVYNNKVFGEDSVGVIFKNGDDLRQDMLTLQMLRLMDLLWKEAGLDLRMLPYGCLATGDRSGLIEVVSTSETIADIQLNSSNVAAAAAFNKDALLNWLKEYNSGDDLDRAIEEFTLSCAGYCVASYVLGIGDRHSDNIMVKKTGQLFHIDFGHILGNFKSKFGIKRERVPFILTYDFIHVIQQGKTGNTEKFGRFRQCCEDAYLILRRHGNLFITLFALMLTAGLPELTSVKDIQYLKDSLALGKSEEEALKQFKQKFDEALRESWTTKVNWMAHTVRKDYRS
Sequence of Phosphatidylinositol 4,5-bisphosphate 3-kinase catalytic subunit gamma isoform (P48736 whole entry, canonical isoform): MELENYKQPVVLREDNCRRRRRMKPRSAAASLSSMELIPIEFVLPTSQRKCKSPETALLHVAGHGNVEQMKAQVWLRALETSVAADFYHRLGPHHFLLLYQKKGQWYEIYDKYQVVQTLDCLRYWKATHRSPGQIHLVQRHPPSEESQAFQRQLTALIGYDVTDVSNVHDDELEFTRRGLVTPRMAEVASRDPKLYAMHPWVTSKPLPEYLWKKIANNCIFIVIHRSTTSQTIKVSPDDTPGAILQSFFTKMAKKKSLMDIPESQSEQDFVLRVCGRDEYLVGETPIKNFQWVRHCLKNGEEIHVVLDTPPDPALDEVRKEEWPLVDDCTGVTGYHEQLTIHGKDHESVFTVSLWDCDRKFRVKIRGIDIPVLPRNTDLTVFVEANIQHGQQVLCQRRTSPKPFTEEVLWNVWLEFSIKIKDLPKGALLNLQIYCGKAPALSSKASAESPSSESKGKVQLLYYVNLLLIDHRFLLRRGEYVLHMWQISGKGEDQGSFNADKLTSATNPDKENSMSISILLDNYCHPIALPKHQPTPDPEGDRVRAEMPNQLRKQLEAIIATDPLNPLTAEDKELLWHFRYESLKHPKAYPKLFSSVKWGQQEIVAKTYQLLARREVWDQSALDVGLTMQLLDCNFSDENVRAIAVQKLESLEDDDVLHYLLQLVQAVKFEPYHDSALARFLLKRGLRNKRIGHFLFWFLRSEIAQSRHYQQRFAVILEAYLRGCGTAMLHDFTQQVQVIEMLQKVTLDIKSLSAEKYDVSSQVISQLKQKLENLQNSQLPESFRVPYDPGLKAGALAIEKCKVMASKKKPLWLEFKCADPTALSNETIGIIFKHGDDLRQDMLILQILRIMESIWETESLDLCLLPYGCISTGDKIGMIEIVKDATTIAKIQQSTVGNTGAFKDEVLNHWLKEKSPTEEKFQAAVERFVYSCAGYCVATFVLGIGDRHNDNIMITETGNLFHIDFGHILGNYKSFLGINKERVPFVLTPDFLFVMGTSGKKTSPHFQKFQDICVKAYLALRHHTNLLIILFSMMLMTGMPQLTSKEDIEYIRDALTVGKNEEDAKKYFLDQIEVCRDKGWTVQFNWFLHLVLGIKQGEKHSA

By IC50 is commonly meant the concentration that gives 50% inhibition. The compound `CN1CCC(n2cnc3ccc(-c4ccc5oc(N)nc5c4)cc3c2=O)CC1` [US11547697, Compound 36] displayed an IC50 in experiment [1] above 10 µM.
In the case of `Nc1nc2cc(-c3ccc4ncn(C5CCOCC5)c(=O)c4c3)ccc2o1` [US11547697, Compound 55], the IC50 in experiment [2] and in experiment [1] was above 10 µM each time.
As for `CC(=O)N1CCC(n2cnc3ccc(-c4ccc5oc(N)nc5c4)cc3c2=O)CC1` [US11547697, Compound 66], the IC50 in experiment [2] and in experiment [1] was above 10 µM throughout.
Take `CCN1CCC(n2cnc3ccc(-c4ccc5oc(N)nc5c4)cc3c2=O)CC1` [US11547697, Compound 73]: the IC50 in experiment [2] and in experiment [1] was above 10 µM in each case.
As for `Nc1nc2cc(-c3ccc4ncc(C(=O)N5CCNCC5)n4c3)ccc2o1` [US11547697, Compound 111], the IC50 in experiment [2] and in experiment [1] was above 10 µM throughout.
Regarding `CNC(=O)CN1CCN(c2cnc3ccc(-c4ccc5oc(N)nc5c4)cc3n2)CC1` [US11547697, Compound 120], the IC50 in experiment [1] is above 10 µM.
In the case of `CN1CCCN(C(=O)c2cnc3ccc(-c4ccc5oc(N)nc5c4)cn23)CC1` [US11547697, Compound 140], the IC50 in experiment [2] and in experiment [1] was above 10 µM throughout.
Regarding `Nc1nc2cc(-c3ccc4ncc(C(=O)NC5CCC(O)CC5)n4c3)ccc2o1` (stereo not given) [US11547697, Compound 143], the IC50 in experiment [1] is below 0.1 µM.
With `CN1CCN(C(=O)c2cnc3ccc(-c4ccc5sc(N)nc5c4)cn23)CC1` [US11547697, Compound 144], the IC50 in experiment [2] and in experiment [1] was above 10 µM throughout.
For `CN1CCN(C(=O)c2cnc3ccc(-c4ccc5nc(N)sc5c4)cn23)CC1` [US11547697, Compound 146], the IC50 in experiment [2] and in experiment [1] was above 10 µM throughout.
Regarding `CC(C)N1CCN(C(=O)c2cnc3ccc(-c4ccc5oc(N)nc5c4)cn23)CC1` [US11547697, Compound 160], the IC50 in experiment [2] and in experiment [1] was above 10 µM each time.
`CN1CCC(N(C)C(=O)c2cnc3ccc(-c4ccc5oc(N)nc5c4)cn23)CC1` [US11547697, Compound 165] came in with an IC50 in experiment [1] above 10 µM.
Still for that read-out and setting: then `Nc1nc2cc(-c3ccc4ncc(N5CCC(N)CC5)nc4c3)ccc2o1` [US11547697, Compound 168], with above 10 µM.
Take `Nc1nc2cc(-c3ccc4ncc(C(=O)N5CCC(N)CC5)n4c3)ccc2o1` [US11547697, Compound 204]: the IC50 in experiment [2] and in experiment [1] was above 10 µM each time.
Compound `CC(C)(N)C(=O)N1CCN(c2cnc3ccc(-c4ccc5oc(N)nc5c4)cc3n2)CC1` [US11547697, Compound 213] came in with an IC50 in experiment [1] above 10 µM.
In experiment [1], `Nc1nc2cc(-c3ccc4ncn(CCCN5CCCC5)c(=O)c4c3)ccc2o1` [US11547697, Compound 271] displayed a concentration for half-maximal inhibition (IC50) above 10 µM.
The same measure, in the same setting: with `Nc1nc2cc(-c3ccc4ncc(C(=O)NCCN5CCCC5)n4c3)ccc2o1` [US11547697, Compound 296] the figure was above 10 µM.
As for `Cc1ccn(C2CCN(C(=O)c3cnc4ccc(-c5ccc6oc(N)nc6c5)cn34)CC2)n1` [US11547697, Compound 297], the IC50 in experiment [2] and in experiment [3] was above 10 µM each time.
For `Nc1nc2cc(-c3ccc4nnc(-c5cccnc5)n4c3)ccc2o1` [US11547697, Compound 300], the IC50 in experiment [2] and in experiment [1] was above 10 µM each time.
On to `Nc1nc2ccc(-c3ccc4nnc(-c5cccnc5)n4c3)cc2o1` [US11547697, Compound 301], for which the IC50 in experiment [2] and in experiment [1] was above 10 µM in each case.
Regarding `C[C@H]1CN(c2cnc3ccc(-c4ccc5sc(N)nc5c4)cc3n2)CCN1` [US11547697, Compound 307], the IC50 in experiment [2] and in experiment [1] was above 10 µM in each case.
`Nc1nc2cc(-c3ccc4ncc(N5CC(N6CCN(CC7CC7)CC6)C5)nc4c3)ccc2o1` [US11547697, Compound 335] displayed an IC50 in experiment [1] above 10 µM.
The same measure, in the same setting: then `CC1(C)CN(c2cnc3ccc(-c4ccc5oc(N)nc5c4)cc3n2)CCN1` [US11547697, Compound 336], with above 10 µM.
`Nc1nc2cc(-c3ccc4ncc(N5CCC(n6cccn6)CC5)nc4c3)ccc2o1` [US11547697, Compound 337]: the IC50 in experiment [2] and in experiment [3] was above 10 µM each time.
On to `Nc1nc2cc(-c3ccc4ncc(C(=O)N5CC5)n4c3)ccc2o1` [US11547697, Compound 340], for which the IC50 in experiment [2] and in experiment [3] was above 10 µM each time.
For `C[C@H]1CN(C2CN(c3cnc4ccc(-c5ccc6oc(N)nc6c5)cc4n3)C2)CCN1` [US11547697, Compound 350], the IC50 in experiment [1] was above 10 µM.
On the same count and under the same terms, with `Cc1c(-c2ccc3oc(N)nc3c2)ccc2ncc(N3CCN[C@@H](C)C3)nc12` [US11547697, Compound 374] the figure was above 10 µM; with `CN1CCN([C@@H]2CCN(c3cnc4ccc(-c5ccc6oc(N)nc6c5)cc4n3)C2)CC1` [US11547697, Compound 379], above 10 µM.
`Cc1c(-c2ccc3oc(N)nc3c2)ccc2ncc(N3CC(N4CCNCC4)C3)nc12` [US11547697, Compound 386]: the IC50 in experiment [2] and in experiment [3] was above 10 µM each time.
As for `Nc1nc2cc(-c3ccc4ncc(N5CCNCC5=O)nc4c3)ccc2o1` [US11547697, Compound 389], the IC50 in experiment [2] and in experiment [3] was above 10 µM throughout.
As for `Nc1nc2cc(-c3ccc4ncc(N5CCN(CC(F)(F)F)CC5)nc4c3)ccc2o1` [US11547697, Compound 395], the IC50 in experiment [2] and in experiment [3] was above 10 µM throughout.
As for `Cc1cc(-c2ccc3oc(N)nc3c2)cn2c(C(=O)N3CCOCC3)cnc12` [US11547697, Compound 448], the IC50 in experiment [2] and in experiment [3] was above 10 µM each time.
Consider `O=C(c1cnc2ccc(-c3cccc(NS(=O)(=O)c4ccccc4)c3)cn12)N1CCOCC1` [US11547697, Compound 453], for which the concentration for half-maximal inhibition (IC50) in experiment [2] and in experiment [3] was above 10 µM in each case.
With `COc1ccc(-c2ccc3ncc(C(=O)N4CCOCC4)n3c2)cc1NS(=O)(=O)c1ccccc1` [US11547697, Compound 455], the IC50 in experiment [2] and in experiment [3] was above 10 µM in each case.
With `O=C(c1cnc2ccc(-c3ccc(Cl)c(NS(=O)(=O)c4ccccc4)c3)cn12)N1CCOCC1` [US11547697, Compound 459], the IC50 in experiment [2] and in experiment [3] was above 10 µM throughout.
Turning to `CO[C@@H]1CCN(C(=O)c2cnc3ccc(-c4ccc5oc(N)nc5c4)cn23)C1` [US11547697, Compound 464], the IC50 in experiment [2] and in experiment [3] was above 10 µM in each case.
As for `Nc1nc2cc(-c3ccc4ncc(C(=O)N5CC[C@H](N6CCOCC6)C5)n4c3)ccc2o1` [US11547697, Compound 465], the IC50 in experiment [2] and in experiment [3] was above 10 µM each time.
Regarding `Nc1nc2cc(-c3ccc4ncc(C(=O)N5CCC(F)(F)C5)n4c3)ccc2o1` [US11547697, Compound 471], the IC50 in experiment [2] and in experiment [3] was above 10 µM in each case.
As for `Nc1nc2cc(-c3ccc4ncc(C(=O)N5CC(F)(F)C5)n4c3)ccc2o1` [US11547697, Compound 473], the half-inhibitory concentration (IC50) in experiment [2] and in experiment [3] was above 10 µM in each case.
For the compound `Nc1nc2cc(-c3ccc4ncc(C(=O)N5CC[C@H](F)C5)n4c3)ccc2o1` [US11547697, Compound 476], the IC50 in experiment [2] and in experiment [3] was above 10 µM in each case.
`CNc1noc2cc(-c3ccc4ncc(C(=O)N5CCOCC5)n4c3)ccc12` [US11547697, Compound 486]: the IC50 in experiment [2] and in experiment [3] was above 10 µM in each case.
For `Nc1nc2cc(-c3ccc4ncc(C(=O)N5CCC(N6CC(F)(F)C6)C5)n4c3)ccc2o1` (stereo not given) [US11547697, Compound 498], the half-maximal inhibitory concentration (IC50) in experiment [2] and in experiment [3] was above 10 µM in each case.
As to `Nc1nc2cc(-c3ccc4ncc(C(=O)N5CCC6(C5)OCCO6)n4c3)ccc2o1` [US11547697, Compound 499], the IC50 in experiment [2] and in experiment [3] was above 10 µM each time.
With `Nc1nc2cc(-c3ccc4ncc(C(=O)N5CCC(F)(F)CC5)n4c3)ccc2o1` [US11547697, Compound 501], the half-maximal inhibitory concentration (IC50) in experiment [2] and in experiment [3] was above 10 µM each time.
Turning to `Nc1nc2cc(-c3ccc4ncc(C(=O)N5CCC(F)CC5)n4c3)ccc2o1` [US11547697, Compound 503], the IC50 in experiment [2] and in experiment [3] was above 10 µM throughout.
For `CC1(C)CN(C(=O)c2cnc3ccc(-c4ccc5oc(N)nc5c4)cn23)CCO1` [US11547697, Compound 513], the IC50 in experiment [2] and in experiment [3] was above 10 µM each time.
`CN1CCC(n2cnc3ccc(-c4cnc(Cl)c(NS(C)(=O)=O)c4)cc3c2=O)CC1` [US11547697, Compound 526] displayed an IC50 in experiment [1] above 10 µM.
